Measured values: ChEMBL document CHEMBL6115017, “Discovery of DFV890, a Potent Sulfonimidamide-Containing NLRP3 Inflammasome Inhibitor” (J Med Chem, 2025)
Converted amounts (≈) assume the structure as drawn.

Experiments:
[1] = Clearance in Sprague-Dawley rat at 5 mg/kg, po by LC-MS analysis; type: ADME, organism-based; conditions: in vivo
[2] = Half life in Sprague-Dawley rat at 5 mg/kg, po by LC-MS analysis; type: ADME, organism-based; conditions: in vivo
[3] = Volume of distribution at steady state in Sprague-Dawley rat at 5 mg/kg, po by LC-MS analysis; type: ADME, organism-based; conditions: in vivo
[4] = Fraction unbound in human plasma; type: ADME, cell-free
[5] = Metabolic stability in human hepatocytes assessed as intrinsic clearance measured per 10^6 cells; type: ADME, cell-based, Hepatocyte; conditions: read-out: CLH
[6] = Metabolic stability in rat hepatocytes assessed as intrinsic clearance measured per 10^6 cells; type: ADME, cell-based, Hepatocyte; conditions: read-out: CLH
[7] = Fraction unbound in Sprague-Dawley rat plasma; type: ADME, cell-free
[8] = Oral bioavailability in Sprague-Dawley rat at 5 mg/kg administered through oral gavage by LC-MS analysis; type: ADME, organism-based; conditions: in vivo
[9] = Solubility of the compound in PBS at pH 7.4; type: physicochemical

| CL/F [1] | half-life [2] | Vdss [3] | fraction unbound [4] | hepatocyte CLint [5] | hepatocyte CLint [6] | fraction unbound [7] | bioavailability [8] | solubility [9] | Structure (SMILES) |
| --- | --- | --- | --- | --- | --- | --- | --- | --- | --- |
| 3.7 mL/min/kg | 2.6 h | 0.29 L/kg | 0.009 | 0.63 µL/min/1e6 cells | 5.2 µL/min/1e6 cells |  |  |  | CC(C)(O)c1cnc([S@](N)(=O)=NC(=O)Nc2c3c(cc4c2CCC4)CCC3)s1 |
| 15.9 mL/min/kg | 0.635 h | 0.271 L/kg | 0.007 |  |  | 0.013 | 47% | 1080 µg/mL (≈ 2680 µM) | CC(C)(O)c1coc(S(=O)(=O)NC(=O)Nc2c3c(cc4c2CCC4)CCC3)c1 |
| 3.21 mL/min/kg | 4.13 h | 0.353 L/kg | 0.014 | 4.2 µL/min/1e6 cells | 5.2 µL/min/1e6 cells | 0.02 | 70% |  | CC(C)(O)c1csc([S@](N)(=O)=NC(=O)Nc2c3c(cc4c2CCC4)CCC3)n1 |
| 11.1 mL/min/kg | 2.36 h | 0.541 L/kg | 0.057 | 1.6 µL/min/1e6 cells | 5.4 µL/min/1e6 cells | 0.05 | 100% |  | CC(C)(O)c1nc([S@](N)(=O)=NC(=O)Nc2c3c(cc4c2CCC4)CCC3)cs1 |
| 1.08 mL/min/kg | 3.07 h | 0.178 L/kg | 0.003 | 3 µL/min/1e6 cells | 3.7 µL/min/1e6 cells | 0.007 | 68% | 8 µg/mL (≈ 18.2 µM) | CC(C)(O)c1ncc([S@](N)(=O)=NC(=O)Nc2c3c(c(F)c4c2CCC4)CCC3)s1 |
| 1.15 mL/min/kg | 2.91 h | 0.191 L/kg | 0.009 | 3.6 µL/min/1e6 cells | 2.5 µL/min/1e6 cells | 0.011 | 50% | 24 µg/mL (≈ 57.2 µM) | CC(C)(O)c1csc([S@](N)(=O)=NC(=O)Nc2c3c(cc4c2CCC4)CCC3)c1 |
